Measured values reported in US20110053835A1, “ANTIMICROBIAL PEPTIDES DERIVED FROM CAP18” (OctoPlus Sciences B.V., priority 2004, published 2011).
Values after ≈ are worked out from the molar mass of the structure shown. Read-outs that look alike come from different tables or passages of the source. Marks after values point to notes of the source that are not given here.

Assays:
[1] = test system: LPS; experiment: LPS neutralization, whole blood (WB) assay; assay type: cell-based; conditions: ± SD
Description: (§1) The compounds prepared according to example 1 were tested for their capability to neutralize the bacterial toxin LPS with a limulus amoebocyte lysate (LAL) assay and with a whole blood (WB) assay. LTA neutralization was also measured with a whole blood assay. Peptide LL-37 was used as a positive control. The peptide concentration whereby 50% LPS is neutralized was used as a measure of the peptide's activity. These concentration values were as in table 1. The differences between the compounds within each assay were not statistically significant.

[2] = test system: Escherichia coli ATCC 8739; conditions: mean of three determinations
Description: (§2) The in vitro antibacterial and antifungal activity of P60.4-Ac and LL-37 were determined as the minimum inhibitory concentrations (MIC) by a microdilution susceptibility test in 96-well microtiter plates, according to a modified version of R. Hancock's “Modified MIC method for cationic antimicrobial peptides” [13]. The antibacterial activity was tested on the reference strains Escherichia coli ATCC 8739, Pseudmonas aeruginosa ATCC 9027. The antifungal activity was evaluated on Candida albicans ATCC 10231 and Aspergillus niger ATCC 14406. The antimicrobial activity assay was conducted with different concentrations of P60.4Ac and LL-37 to compare their effects on the bacterial or fungal growth. Antibacterial activity was examined using log-phase cultured bacteria in Trypticase Soy Broth at 37° C. The cultures were diluted with 10 mM Sodium Phosphate buffer pH 7.4 to give approximately 5.0×10^6 CFU/ml. 10 μl of the diluted test strain was transferred to a 96-well plate and 100 μl of the different peptide concentrations was added to each well. The plates were incubated at 37° C. for 24 hours and are then scored for growth by visual inspection on a light box. They are then returned for incubation for a further 24 hours after which time they are re-evaluated for growth. The yeast strain C. albicans was prepared as described above. The filamentous fungi A. niger was used as a spore suspension, cultured on Sabourauds Dextrose Agar plates at 20-25° C. for 6-10 days or until adequate sporulation has occurred. The spores were harvested by scrapping and if necessary the concentration was adjusted to a final concentration of 5×10^6 CFU/ml.

[3] = test system: P. aeruginosa ATCC9027
Description: as §2

[4] = test system: Aspergillus niger ATCC 14406
Description: as §2

[5] = test system: Candida albicans ATCC 10231
Description: as §2

[6] = test system: LTA; experiment: LTA neutralization, whole blood (WB) assay; assay type: cell-based; conditions: ± SD
Description: as §1

[7] = test system: peripheral blood mononuclear cells (PBMC); experiment: γ-IFN Elispot assay; assay type: cell-based; conditions: fraction of positive stimulation indices (positive: >2), 48 hours of culture
Description: (§3) The compounds prepared according to example 1 were tested for their therapeutically undesirable immunogenic activity by using Elispot, T-cell proliferation, ERK-activation, and neutrophil chemotaxis assays. The Elispot assay is applicable to determine effects of drugs, chemicals or other compounds on cytokine secretion in vitro, thereby providing data on their putative modulatory effects on immune function in vivo. The results of the assay are given as fraction of positive responses to IFN-gamma. […] Cytokines are direct mediators of inflammation and influence the progress and direction of many immunological reactions. Perturbation of the balance in cytokine production is widely recognized as a critical factor in several disease states. This balance is already disturbed in the case of conditions such as otitis media with effusion and sinusitis. T. cell proliferation is also not favorable in this situation, because this will also stimulate the immune response that is already out of control.
(§4) For T cell proliferation, 150,000 peripheral blood mononuclear cells (PBMC) were cultured in the absence or presence of 10 μg/ml of the compounds for 5 days in 96 well round bottom plates (Costar Inc. Cambridge, Mass.) in a final volume of 150 μl IMDM complete. As a positive control, PBMC were cultured in the presence of 25 U/ml recombinant IL-2. During the final 20 hours of culture, PBMC were pulsed with [3H]thymidine (0.5 microCi/well), after which 3H-incorporation was measured by liquid scintillation counting. For detection of the T cell cytokines IFN and IL-10 by Elispot analysis, 1.5×10^6 PBMC were cultured in 0.5 ml IMDM complete in the absence or presence of various concentrations of synthetic peptide. As a positive control PBMC were stimulated by 10 μg/ml poke weed mitogen (PWM). After 48 hours of culture, PBMC were harvested by gently rinsing the wells with warm IMDM to collect non-adherent cells, which were washed in a large volume of IMDM. PBMC were subsequently plated on antibody-precoated ELISA plates and cultured for 5 hours in IMDM supplemented with 2% pooled human AB serum at 37° C. 5% CO2, after which the plates were developed according to the manufacturer's protocol (U-CyTech, Utrecht, The Netherlands), Spots were counted on an Olympus microscope and analyzed with Olympus Micro Image 4.0 software (Paes Nederland, Zoeterwoude, The Netherlands). The final results are expressed as fraction of positive stimulation indices (positive: >2).

[8] = test system: neutrophils isolated from peripheral blood; experiment: Neutrophil chemotaxis (modified Boyden chamber); assay type: cell-based; conditions: percentage neutrophils on the membrane compared to positive control 10^−8 M FMLP; 90 minutes at 37° C.
Description: Neutrophils chemotaxis was measured with neutrophils isolated from peripheral blood using Percoll density centrifugation (density: 1.082 g/ml). The cells were resuspended at a concentration of 2.5×10^6 cells/ml in chemotaxis medium (20 mM N-2-hydroxyethylpiperazine-N′-2-ethanesulfonic acid (HEPES buffer) HEPES, 132 mM NaCl, 6 mM KCl, 1.2 mM KH2PO4, 1 mM MgSO4, 5.5 mM glucose, 0.1 mM CaCl2 and 0.5% (wt/vol) human serum albumm [Central Laboratory of the Netherlands Red Cross Blood Transfusion Service (CLB), Amsterdam, The Netherlands] diluted 1:1 with serum-free RPMI. The chemotactic activity of the compounds was assessed using a modified Boyden Camber technique. Briefly, 26 μl stimuli diluted in HEPES buffer was added to the wells of the lower compartment, and 50 μl of neutrophil suspension (2.5×10^6 cells/ml) was added to the upper compartment. The compartments were separated by two filters: a lower filter with a pore size of 0.45 μm (Millipore Products, Bedford, Mass.) and an upper filter with a pore size of 8 μm (Sartorius Filter, San Francisco, Calif.). After incubation for 90minutes at 37° C., the upper filters were removed, fixed in ethanol-butanol (80:20, vol/vol), and stained with Weigert solution. To determine neutrophil chemotactic activity, neutrophils were counted in six random high-power fields (×400), and the percentage neutrophils on the membrane as compared to the positive control (10^−8 M, N-formylmethionyl-leucyl-phenylalanine (FMLP, Sigma) was calculated.

[9] = test system: LPS; experiment: LPS neutralization, limulus amoebocyte lysate (LAL) assay; assay type: biochemical; conditions: ± SD
Description: as §1

[10] = test system: peripheral blood mononuclear cells (PBMC); experiment: T cell proliferation ([3H]thymidine incorporation); assay type: cell-based; conditions: fraction of positive stimulation indices (positive: >2), 10 μg/ml compound, 5 days
Description: as §3, §4

[11] = test system: guinea pigs; assay type: in vivo, guinea pig
Description: The skin was sutured closed and follow-up auditory testing was performed.
Auditory brainstem response (ABR) was performed prior to drug administration and directly after surgery and 3, 7, 14 and 22 days later, using a computer-based signal averaging system (Tucker-Davis Technology, Alucha, Fla., USA). Guinea pigs were anesthetized and an insert earphone was placed into the external ear canal. […] Ground electrodes were placed over the neck muscles. […] Stimulus intensities were measured and expressed as dB.

[12] = test system: rats; experiment: Single and repeated dose intravenous systemic toxicity study; assay type: in vivo, rat
Description: The systemic toxicity of P60.4Ac was assessed in a single and repeated dose toxicity study in rats. The peptide was administered daily intravenously in escalating doses. In this phase, the Maximum Tolerated Dose (MTD) was established. Repeated dose toxicity was also studied in the MTD phase. In the dose escalation phase, 9 rate were divided in three groups and received 0.4, 2 or 8 mg/kg/day for two days. Clinical signs were recorded twice daily on days of dosing and one day after dosing, body weights were recorded prior to the first dose and one day after dosing. In the MTD phase, 5 female and 5 male rats received 8 mg/kg/day for 5 following days. Clinical signs were recorded twice daily on days of dosing, body weight on day 1 and 6. Clinical laboratory investigations were performed prior to necropsy. Macroscopy was performed at termination of the MTD phase.

[13] = test system: rabbits
Description: (§5) For the skin and eye irritation tests, three rabbits were exposed to 0.5 ml phosphate buffered peptide solution (2 mg/ml), applied onto clipped skin for 4 hours using a semi-occlusive dressing. Observations were made 1, 24, 48, and 72 hours after exposure. Single samples of 0.1 ml of phosphate buffered (pH7.5) peptide solution (2 mg/ml) were instilled into one eye of each of three rabbits to perform an acute eye irritation/corrosion study. Observations were made 1, 24, 48, and 72 hours after instillation.

[14] = test system: rabbits; conditions: 0.5 ml peptide solution 2 mg/ml on clipped skin for 4 hours, semi-occlusive; observed 1-72 hours
Description: as §5

[15] = E. coli ATCC8739, incubation 24 h
[16] = E. coli ATCC8739, incubation 48 h
[17] = P. aeruginosa ATCC9027, incubation 24 h
[18] = P. aeruginosa ATCC9027, incubation 48 h
[19] = A. niger ATCC14406, incubation 24 h
[20] = A. niger ATCC14406, incubation 48 h
[21] = C. albicans ATCC10231, incubation 24 h
[22] = C. albicans ATCC10231, incubation 48 h
[23] = intravenous, 8 mg/kg/day for 5 days
[24] = intravenous, 0.4, 2 or 8 mg/kg/day for two days

| Compound | Compound concentration for 50% LPS-neutralization, LPS (WB) [1] [µg/mL] | MIC [2, 15] [µM] | MIC [2, 16] | MIC [3, 17] [µM] | MIC [3, 18] | MIC [4, 19] [µM] | MIC [4, 20] | MIC [5, 21] [µM] | MIC [5, 22] | Compound concentration for 50% LTA-neutralization, LTA (WB) [6] [µg/mL] | γ-IFN Elispot [7] | Chemotaxis (%) [8] [%] | Compound concentration for 50% LPS-neutralization, LPS (LAL) [9] [µg/mL] | T cell proliferation [10] | also measured |
| --- | --- | --- | --- | --- | --- | --- | --- | --- | --- | --- | --- | --- | --- | --- | --- |
| CC[C@H](C)[C@H](NC(=O)[C@H](CCCCN)NC(=O)[C@H](CCC(=O)O)NC(=O)[C@H](CCCCN)NC(=O)[C@H](CO)NC(=O)[C@H](CCCCN)NC(=O)[C@H](CCCNC(=N)N)NC(=O)[C@H](Cc1ccccc1)NC(=O)[C@H](Cc1ccccc1)NC(=O)[C@H](CC(=O)O)NC(=O)CNC(=O)[C@H](CC(C)C)NC(=O)[C@@H](N)CC(C)C)C(=O)NCC(=O)N[C@@H](CCCCN)C(=O)N[C@@H](CCC(=O)O)C(=O)N[C@@H](Cc1ccccc1)C(=O)N[C@@H](CCCCN)C(=O)N[C@@H](CCCNC(=N)N)C(=O)N[C@H](C(=O)N[C@H](C(=O)N[C@@H](CCC(N)=O)C(=O)N[C@@H](CCCNC(=N)N)C(=O)N[C@H](C(=O)N[C@@H](CCCCN)C(=O)N[C@@H](CC(=O)O)C(=O)N[C@@H](Cc1ccccc1)C(=O)N[C@@H](CC(C)C)C(=O)N[C@@H](CCCNC(=N)N)C(=O)N[C@@H](CC(N)=O)C(=O)N[C@@H](CC(C)C)C(=O)N[C@H](C(=O)N1CCC[C@H]1C(=O)N[C@@H](CCCNC(=N)N)C(=O)N[C@H](C(=O)N[C@@H](CCC(=O)O)C(=O)N[C@@H](CO)C(=O)O)[C@@H](C)O)C(C)C)[C@@H](C)CC)C(C)C)[C@@H](C)CC [LL-37, reference compound] | 1.2 ± 0.3 | 3 (≈ 13.5 µg/mL) | 7^b μM | 3 (≈ 13.5 µg/mL) | 14^d μM | >18 | >18^e μM | 12 (≈ 53.9 µg/mL) | >18^e μM | 1.6 ± 0.5 | 4/8 | 84 ± 17 | 1.3 ± 0.2 | 6/8 | activity against A. niger ([4]; up to 18 μM): no activity |
| Ac-IGKEFKRIVERIKRFLRELVRPLR-NH2 [Compound P60.4Ac] |  | 2 | 3^c μM | 3 | 6^b μM | 18 | >18^e μM | 6 | 6^f μM |  |  |  |  |  | ABR threshold change ([11]; P60.4-Ac 2 mg/ml in PBS, 22 days after surgery): −7 dB; ABR threshold change ([11]; P60.4-Ac as formulation II, both animals, 22 days): 1 dB; clinical signs, body weight, hematology, clinical biochemistry and macroscopic examination, MTD phase [12, 23]: no clear peptide related findings; mortality, MTD phase [12, 23]: no mortality occurred; clinical signs and body weight, dose escalation phase [12, 24]: no clear deviations; mortality, dose escalation phase [12, 24]: no mortality occurred; time to complete resolution of conjunctival redness after instillation ([13]; 0.1 ml peptide solution 2 mg/ml into one eye): ≤ 24 h; eye irritation finding after ophthalmic instillation ([13]; 0.1 ml phosphate buffered (pH7.5) peptide solution 2 mg/ml into one eye): redness of the conjunctivae; skin irritation [14]: no skin irritation was detectable |
| IGKEFERIVQRIKDFLRNLVPRTE [Compound P60, 24 amino acid peptide derived from CAP18/LL-37] | 1.4 ± 0.1 |  |  |  |  |  |  |  |  | 2.1 ± 0.7 | 1/8 | 76 ± 39 | 1.5 ± 0.5 | 7/8 |  |
| IGKEFKRIVERIKRFLRELVRPLR [Compound P60.4] | 2.1 ± 0.6 |  |  |  |  |  |  |  |  | 2.0 ± 1.3 | 3/8 | 0 ± 0 | 1.7 ± 0.6 | 2/8 |  |
| IGKEFKRIVQRIKDFLRNLVPRTE [Compound P60.Ac] | 2.4 ± 0.5 |  |  |  |  |  |  |  |  | 2.1 ± 0.1 | 3/8 | 61 ± 36 | 1.8 ± 0.8 | 4/8 |  |
